“And” between values parts separate entries of the source, which are not always exact repeats. Equal entries are not always repeated. Structures can show the parent of a compound that is named as a salt.
Legend:
[1] = molecular target: T1, wild type human RORγt ligand binding domain (RORyt LBD) (Homo sapiens, UniProt P51449); assay: RORγt ThermoFluor assay (thermal shift, binding affinity KD)
T1 construct: His-tag (N); TurboTEV protease cleavage site (ENLYFQG) (N); made in house; host or cells: E. coli (pHIS1, modified pET vector)
T1 sequence (P51449 258-518): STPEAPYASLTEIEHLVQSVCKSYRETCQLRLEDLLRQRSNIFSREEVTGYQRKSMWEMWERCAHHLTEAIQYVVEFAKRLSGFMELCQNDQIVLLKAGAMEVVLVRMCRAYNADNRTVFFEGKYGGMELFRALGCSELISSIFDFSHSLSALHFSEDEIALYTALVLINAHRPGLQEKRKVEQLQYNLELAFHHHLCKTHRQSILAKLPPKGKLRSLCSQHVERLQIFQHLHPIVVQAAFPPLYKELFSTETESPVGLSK

[2] = molecular target: T2, wild type human RORγt LBD (Homo sapiens, UniProt P51449); assay: RORγt (LBD) Reporter Assay (GAL4-luciferase, HEK293T cells); assay type: cell-based; details: for IC50: HEK293T cells, value after the comma with ∼, > or < could not be included in the average; for inhibition at 6 µM: HEK-293T, read-out: RORγt (LBD) Reporter Assay, % inhibition @ 6 µM, 6 µM compound concentration; for RORγt (LBD) Reporter Assay, % inhibition @ 6 µM: 6 µM compound concentration
T2 construct: expressed in transfected cells; host or cells: HEK293T
T2 sequence (P51449 258-518): T1 sequence (P51449 258-518)

| SMILES | Kd [1] [nM] | IC50 [2] | inhibition at 6 µM [2] [%] | RORγt (LBD) Reporter Assay, % inhibition @ 6 µM [2] [%] |
| --- | --- | --- | --- | --- |
| COc1nc2ccc(C(O)(c3cncn3C)C3CCOCC3)cc2c(Cl)c1Cc1ccc(-n2cccn2)cc1 (single isomer, unassigned) [Example 1b, (3-(4-(1H-Pyrazol-1-yl)benzyl)-4-chloro-2-methoxyquinolin-6-yl)(1-methyl-1H-imidazol-5-yl)(tetrahydro-2H-pyran-4-yl)methanol] | 43 | 100 nM | 99 |  |
| COc1nc2ccc(C(O)(c3cncn3C)C3CCOCC3)cc2c(Cl)c1Cc1ccc(-n2cccn2)cc1 (single isomer, unassigned) [Example 1c, (3-(4-(1H-Pyrazol-1-yl)benzyl)-4-chloro-2-methoxyquinolin-6-yl)(1-methyl-1H-imidazol-5-yl)(tetrahydro-2H-pyran-4-yl)methanol] | 1.5 | 22 nM |  | 98 |
| COc1nc2ccc(C(O)(c3ccc(C#N)cc3)c3cncn3C)cc2c(Cl)c1Cc1ccc(-n2cncn2)cc1 (single isomer, unassigned) [Example 14b, 4-((3-(4-(1H-1,2,4-Triazol-1-yl)benzyl)-4-chloro-2-methoxyquinolin-6-yl)(hydroxy)(1-methyl-1H-imidazol-5-yl)methyl)benzonitrile] | 140 | 120 nM | 105 |  |
| COc1nc2ccc(C(O)(c3ccc(C#N)cc3)c3cncn3C)cc2c(Cl)c1Cc1ccc(-n2cncn2)cc1 (single isomer, unassigned) [Example 14c, 4-((3-(4-(1H-1,2,4-Triazol-1-yl)benzyl)-4-chloro-2-methoxyquinolin-6-yl)(hydroxy)(1-methyl-1H-imidazol-5-yl)methyl)benzonitrile] | 5.5 | 24 nM |  | 106 |
| COc1nc2ccc(C(O)(c3ccc(C#N)cc3)c3cncn3C)cc2c(C#N)c1Cc1ccc(-n2cncn2)cc1 (single isomer, unassigned) [Example 15b, 3-(4-(1H-1,2,4-Triazol-1-yl)benzyl)-6-((4-cyanophenyl)(hydroxy)(1-methyl-1H-imidazol-5-yl)methyl)-2-methoxyquinoline-4-carbonitrile] | 140 | 410 nM | 99 |  |
| COc1nc2ccc(C(O)(c3ccc(C#N)cc3)c3cncn3C)cc2c(C#N)c1Cc1ccc(-n2cncn2)cc1 (single isomer, unassigned) [Example 15c, 3-(4-(1H-1,2,4-Triazol-1-yl)benzyl)-6-((4-cyanophenyl)(hydroxy)(1-methyl-1H-imidazol-5-yl)methyl)-2-methoxyquinoline-4-carbonitrile] | 17 | 28 nM |  | 97 |
| COc1nc2ccc(C(O)(c3ccc(C)nc3C)c3cnnn3C)cc2c(Cl)c1Cc1ccc(-n2cccn2)cc1 (single isomer, unassigned) [Example 17b, (3-(4-(1H-Pyrazol-1-yl)benzyl)-4-chloro-2-methoxyquinolin-6-yl)(2,6-dimethylpyridin-3-yl)(1-methyl-1H-1,2,3-triazol-5-yl)methanol] | 200 | 660 nM | 97 |  |

Second part, the molecule after the results:

| Kd [1] [nM] | IC50 [2] | inhibition at 6 µM [2] [%] | RORγt (LBD) Reporter Assay, % inhibition @ 6 µM [2] [%] | SMILES |
| --- | --- | --- | --- | --- |
| 20 | 97 nM | 93 |  | Cn1cncc1C(O)(c1ccc2nc(C(F)(F)F)c(Cc3ccccc3)c(C#N)c2c1)c1ccccn1 (racemic) [Example 99a, 3-Benzyl-6-(hydroxy(1-methyl-1H-imidazol-5-yl)(pyridin-2-yl)methyl)-2-(trifluoromethyl)quinoline-4-carbonitrile•TFA] |
| 0.29 | 9 nM |  | 101 | COc1nc2ccc(C(O)(c3ccc(C)nc3C)c3cnnn3C)cc2c(Cl)c1Cc1ccc(-n2cccn2)cc1 (single isomer, unassigned) [Example 17c, (3-(4-(1H-Pyrazol-1-yl)benzyl)-4-chloro-2-methoxyquinolin-6-yl)(2,6-dimethylpyridin-3-yl)(1-methyl-1H-1,2,3-triazol-5-yl)methanol] |
| 8 | 83 nM | 99 |  | COc1nc2ccc(C(O)(c3ccccc3)C3CCN(C(C)=O)CC3)cc2c(Cl)c1Cc1ccc(-n2cncn2)cc1 (single isomer, unassigned) [Example 18b, 1-(4-((3-(4-(1H-1,2,4-Triazol-1-yl)benzyl)-4-chloro-2-methoxyquinolin-6-yl)(hydroxy)(phenyl)methyl)piperidin-1-yl)ethanone] |
| 50 | 88 nM |  | 91 | COc1nc2ccc(C(O)(c3ccccc3)C3CCN(C(C)=O)CC3)cc2c(Cl)c1Cc1ccc(-n2cncn2)cc1 (single isomer, unassigned) [Example 18c, 1-(4-((3-(4-(1H-1,2,4-Triazol-1-yl)benzyl)-4-chloro-2-methoxyquinolin-6-yl)(hydroxy)(phenyl)methyl)piperidin-1-yl)ethanone] |
| 390 | 1400 nM | 84 |  | COc1nc2ccc(C(O)(c3ccc(C)nc3C)c3cnnn3C)cc2c(Cl)c1Cc1ccc(C)cc1 (single isomer, unassigned) [Example 20b, (4-Chloro-2-methoxy-3-(4-methylbenzyl)quinolin-6-yl)(2,6-dimethylpyridin-3-yl)(1-methyl-1H-1,2,3-triazol-5-yl)methanol] |
| 0.62 | 57 nM and ~30 nM |  | 93 | COc1nc2ccc(C(O)(c3ccc(C)nc3C)c3cnnn3C)cc2c(Cl)c1Cc1ccc(C)cc1 (single isomer, unassigned) [Example 20c, (4-Chloro-2-methoxy-3-(4-methylbenzyl)quinolin-6-yl)(2,6-dimethylpyridin-3-yl)(1-methyl-1H-1,2,3-triazol-5-yl)methanol] |
| 22 | 130 nM | 99 |  | COc1nc2ccc(C(O)(c3sc(C)nc3C)c3cnnn3C)cc2c(Cl)c1Cc1ccc(-n2cccn2)cc1 (single isomer, unassigned) [Example 21b, (3-(4-(1H-Pyrazol-1-yl)benzyl)-4-chloro-2-methoxyquinolin-6-yl)(2,4-dimethylthiazol-5-yl)(1-methyl-1H-1,2,3-triazol-5-yl)methanol] |
| 0.08 | 8.7 nM |  | 98 | COc1nc2ccc(C(O)(c3sc(C)nc3C)c3cnnn3C)cc2c(Cl)c1Cc1ccc(-n2cccn2)cc1 (single isomer, unassigned) [Example 21c, (3-(4-(1H-Pyrazol-1-yl)benzyl)-4-chloro-2-methoxyquinolin-6-yl)(2,4-dimethylthiazol-5-yl)(1-methyl-1H-1,2,3-triazol-5-yl)methanol] |
| 480 | 790 nM | 97 |  | COc1nc2ccc(C(O)(c3ccc(C)nc3C)c3cnnn3C)cc2c(Cl)c1Cc1ccc(-n2cncn2)cc1 (single isomer, unassigned) [Example 22b, (3-(4-(1H-1,2,4-Triazol-1-yl)benzyl)-4-chloro-2-methoxyquinolin-6-yl)(2,6-dimethylpyridin-3-yl)(1-methyl-1H-1,2,3-triazol-5-yl)methanol] |

— patent publication EP3057951B1, “METHYLENE LINKED QUINOLINYL MODULATORS OF ROR-GAMMA-T” (Janssen Pharmaceutica NV, priority 2013, dated 2015)
